Experimental data taken from patent publication US12435059B2, “AMP-activated protein kinase inhibitors and methods of making and using the same” (The Regents of the University of Colorado, priority 2019, dated 2025).
Where two headings read alike, the source gives them in different places.

How the values were obtained:
Assay in all cases: biochemical
Format in all cases: binding
468 kinases [1] = molecular target: 468 kinases (Homo sapiens, UniProt O96013); conditions: PAK4; read-out: % Inhibition @ 100 nM
468 kinases [2] = molecular target: 468 kinases (Homo sapiens, UniProt Q9P2K8, S808G); conditions: GCN2(Kin.Dom.2,S808G); read-out: % Inhibition @ 100 nM
468 kinases [3] = molecular target: 468 kinases (Homo sapiens, UniProt Q9UKI8); conditions: TLK1; read-out: % Inhibition @ 100 nM
468 kinases [4] = molecular target: 468 kinases (Homo sapiens, UniProt O75116); conditions: ROCK2; read-out: % Inhibition @ 100 nM
468 kinases [5] = molecular target: 468 kinases (Homo sapiens, UniProt Q16816); conditions: PHKG1; read-out: % Inhibition @ 100 nM
468 kinases [6] = molecular target: 468 kinases (Homo sapiens, UniProt Q9UQM7); conditions: CAMK2A; read-out: % Inhibition @ 100 nM
468 kinases [7] = molecular target: 468 kinases (Homo sapiens, UniProt Q86Y07); conditions: VRK2; read-out: % Inhibition @ 100 nM
468 kinases [8] = molecular target: 468 kinases (Homo sapiens, UniProt Q9NSY1); conditions: BIKE; read-out: % Inhibition @ 100 nM
468 kinases [9] = molecular target: 468 kinases (Homo sapiens, UniProt P00533, L858R/T790M); conditions: EGFR(L858R,T790M); read-out: % Inhibition @ 100 nM
468 kinases [10] = molecular target: 468 kinases (Homo sapiens, UniProt P43405); conditions: SYK; read-out: % Inhibition @ 100 nM
468 kinases [11] = molecular target: 468 kinases (Homo sapiens, UniProt Q00532); conditions: CDKL1; read-out: % Inhibition @ 100 nM
468 kinases [12] = molecular target: 468 kinases (Homo sapiens, UniProt O00329); conditions: PIK3CD; read-out: % Inhibition @ 100 nM
468 kinases [13] = molecular target: 468 kinases (Homo sapiens, UniProt P36888, K663Q); conditions: FLT3(K663Q); read-out: % Inhibition @ 100 nM
468 kinases [14] = molecular target: 468 kinases (Homo sapiens, UniProt Q6XUX3); conditions: RIPK5; read-out: % Inhibition @ 100 nM
468 kinases [15] = molecular target: 468 kinases (Homo sapiens, UniProt Q9H4B4); conditions: PLK3; read-out: % Inhibition @ 100 nM
468 kinases [16] = molecular target: 468 kinases (Homo sapiens, UniProt P49760); conditions: CLK2; read-out: % Inhibition @ 100 nM
468 kinases [17] = molecular target: 468 kinases (Homo sapiens, UniProt Q9Y6E0); conditions: MST3; read-out: % Inhibition @ 100 nM
468 kinases [18] = molecular target: 468 kinases (Homo sapiens, UniProt Q13523); conditions: PRP4; read-out: % Inhibition @ 100 nM
468 kinases [19] = molecular target: 468 kinases (Homo sapiens, UniProt P36888); conditions: read-out: % Inhibition @ 100 nM
468 kinases [20] = molecular target: 468 kinases (Homo sapiens, UniProt P41743); conditions: PRKCI; read-out: % Inhibition @ 100 nM
468 kinases [21] = molecular target: 468 kinases (Homo sapiens, UniProt P36888, D835H); conditions: FLT3(D835H); read-out: % Inhibition @ 100 nM
468 kinases [22] = molecular target: 468 kinases (Homo sapiens, UniProt Q13555); conditions: CAMK2G; read-out: % Inhibition @ 100 nM
468 kinases [23] = molecular target: 468 kinases (Homo sapiens, UniProt P36888, D835V); conditions: FLT3(D835V); read-out: % Inhibition @ 100 nM
468 kinases [24] = molecular target: 468 kinases (Homo sapiens, UniProt Q9Y463); conditions: DYRK1B; read-out: % Inhibition @ 100 nM
468 kinases [25] = molecular target: 468 kinases (Homo sapiens, UniProt P45984); conditions: JNK2; read-out: % Inhibition @ 100 nM
468 kinases [26] = molecular target: 468 kinases (Homo sapiens, UniProt P08922); conditions: ROS1; read-out: % Inhibition @ 100 nM
468 kinases [27] = molecular target: 468 kinases (Homo sapiens, UniProt P35626); conditions: GRK3; read-out: % Inhibition @ 100 nM
468 kinases [28] = molecular target: 468 kinases (Homo sapiens, UniProt Q99755); conditions: PIP5K1A; read-out: % Inhibition @ 100 nM
468 kinases [29] = molecular target: 468 kinases (Homo sapiens, UniProt P22607); conditions: FGFR3; read-out: % Inhibition @ 100 nM
468 kinases [30] = molecular target: 468 kinases (Homo sapiens, UniProt P07947); conditions: YES; read-out: % Inhibition @ 100 nM
468 kinases [31] = molecular target: 468 kinases (Homo sapiens, UniProt Q06418); conditions: TYRO3; read-out: % Inhibition @ 100 nM
468 kinases [32] = molecular target: 468 kinases (Homo sapiens, UniProt O14965); conditions: AURKA; read-out: % Inhibition @ 100 nM

Structure (SMILES)	inhibition at 0.1 µM (468 kinases [1])	inhibition at 0.1 µM (468 kinases [2])	inhibition at 0.1 µM (468 kinases [3])	inhibition at 0.1 µM (468 kinases [4])	inhibition at 0.1 µM (468 kinases [5])	inhibition at 0.1 µM (468 kinases [6])	inhibition at 0.1 µM (468 kinases [7])	inhibition at 0.1 µM (468 kinases [8])	inhibition at 0.1 µM (468 kinases [9])	inhibition at 0.1 µM (468 kinases [10])	inhibition at 0.1 µM (468 kinases [11])	inhibition at 0.1 µM (468 kinases [12])	inhibition at 0.1 µM (468 kinases [13])	inhibition at 0.1 µM (468 kinases [14])	inhibition at 0.1 µM (468 kinases [15])	inhibition at 0.1 µM (468 kinases [16])	inhibition at 0.1 µM (468 kinases [17])	inhibition at 0.1 µM (468 kinases [18])	inhibition at 0.1 µM (468 kinases [19]; FLT3 -autoinhibited)	inhibition at 0.1 µM (468 kinases [19]; FLT3)	other results
CCN(CC)CCNC(=O)c1c(C)[nH]c(/C=C2\C(=O)Nc3ccc(CCC(N)=O)cc32)c1C [Compound No. 16, (Z)-5-((5-(3-Amino-3-oxopropyl)-2-oxoindolin-3-ylidene)methyl)-N-(2-(diethylamino)ethyl)-2,4-dimethyl-1H-pyrrole-3-carboxamide]	0%	0%	0%	44%	88%	45%	39%	93.6%	18%	0%	26%	24%	92.9%	3%	16%	100%	19%	76%	61%	62%	inhibition at 0.1 µM (468 kinases [20]): 37%; inhibition at 0.1 µM (468 kinases [21]): 92.9%; inhibition at 0.1 µM (468 kinases [22]): 18%; inhibition at 0.1 µM (468 kinases [23]): 100%; inhibition at 0.1 µM (468 kinases [24]): 0%; inhibition at 0.1 µM (468 kinases [25]): 32%; inhibition at 0.1 µM (468 kinases [26]): 0%; inhibition at 0.1 µM (468 kinases [27]): 61%; inhibition at 0.1 µM (468 kinases [28]): 91.1%; inhibition at 0.1 µM (468 kinases [29]): 11%; inhibition at 0.1 µM (468 kinases [30]): 24%; inhibition at 0.1 µM (468 kinases [31]): 2.1%; inhibition at 0.1 µM (468 kinases [32]): 41%
CCN(CC)CCNC(=O)c1c(C)[nH]c(/C=C2\C(=O)Nc3ccc(CCO)cc32)c1C [Compound No. 10, (Z)—N-(2-(Diethylamino)ethyl)-5-((5-(2-hydroxyethyl)-2-oxoindolin-3-ylidene)methyl)-2,4-dimethyl-1H-pyrrole-3-carboxamide]	0%	28%	2%	29%	86%	6%	0%	97.4%	0%	16%	31%	0%	96.4%	0%	4%	93.8%	20%	87%	81%	96.7%	inhibition at 0.1 µM (468 kinases [20]): 12%; inhibition at 0.1 µM (468 kinases [21]): 91.7%; inhibition at 0.1 µM (468 kinases [22]): 8%; inhibition at 0.1 µM (468 kinases [23]): 100%; inhibition at 0.1 µM (468 kinases [24]): 75%; inhibition at 0.1 µM (468 kinases [25]): 0%; inhibition at 0.1 µM (468 kinases [26]): 15%; inhibition at 0.1 µM (468 kinases [27]): 0%; inhibition at 0.1 µM (468 kinases [28]): 98%; inhibition at 0.1 µM (468 kinases [29]): 52%; inhibition at 0.1 µM (468 kinases [30]): 13%; inhibition at 0.1 µM (468 kinases [31]): 0%; inhibition at 0.1 µM (468 kinases [32]): 0%
